ChEMBL document CHEMBL3244151, “9-hydroxy-1,2,3,4,5,6-hexahydro-1,5-methano-3-benzazocine derivatives as analgesics” (1977)

System: Mus musculus
Assay: Analgesic activity in sc dosed albino dd mouse by tail pressure stimuli method
Format: functional

Br.C[C@H]1[C@H]2Cc3ccc(O)cc3[C@]1(C)CN(C)C2
ED50: 28 mg/kg

CN1C[C@@H]2Cc3ccccc3[C@@](C)(C2)C1.Cl
ED50: > 50 mg/kg

Br.C[C@@H]1[C@H]2Cc3ccc(O)cc3[C@]1(C)CN(C)C2
ED50: 32.8 mg/kg

Br.CN1C[C@@H]2Cc3ccc(O)cc3[C@@](C)(C2)C1
ED50: 8.4 mg/kg

COc1ccc2c3c1O[C@H]1[C@@H](O)C=C[C@H]4[C@@H](C2)N(C)CC[C@@]341.COc1ccc2c3c1O[C@H]1[C@@H](O)C=C[C@H]4[C@@H](C2)N(C)CC[C@@]341.O.O=P(O)(O)O.O=P(O)(O)O [CODEINE PHOSPHATE]
ED50: 9.2 mg/kg
